The values that follow come from doi:10.1101/2025.03.14.643303, “A genome-scale drug discovery pipeline uncovers new therapeutic targets and a unique p97 allosteric binding site in Schistosoma mansoni” (bioRxiv, 2025).

One test deals with adult S. mansoni worms. The experiment in a line: Treatment of adult S. mansoni worms in culture with inhibitors (attachment to tissue culture substrate, morphology; single 10 μM and dose-response EC50). The test is classed as cell-based, Schistosoma mansoni. Particulars: for EC50: Schistosoma mansoni; for effect on adult worms: benzoxazole propiolamide series, treated 72 hours, monitored until D5. The method, then: Adult S. mansoni (NMRI strain) (6–7 weeks post-infection) worms were harvested from infected female Swiss Webster mice by hepatic portal vein perfusion using 37°C DMEM (Mediatech, Manassas, VA), 8% Horse Serum, and heparin.
Roughly 5 adult worm pairs were placed in 3mL Basch medium in a 12-well culture vessel, and incubated at 37°C, 5% CO2 for the length of the experiment. Compound was administered at D0, D1, and D2, media and drug refreshed every 24 hr. Worms were then allowed to remain in culture until D5, where a final assessment of worm attachment to tissue culture substate was made by light microscopy. Observations on movement and morphology were also recorded. A negative control (0.1% DMSO) and positive control (PZQ; 10 μM in 0.1% DMSO) were included in each experiment, and each experiment was repeated in triplicate for validation. For compounds that caused complete detachment in replicate experiments, the treatment was expanded to three concentrations (10 μM, 5 μM, and 1 μM) following the same treatment schedule and controls as detailed above. […] Each titration experiment was performed in triplicate according to the treatment regimen described above, using DMSO and PZQ as appropriate controls. Morphologies and motility were assessed by light microscopy, and dose-response curves were calculated using the primary readout of parasite attachment to tissue culture substrate in GraphPad Prism. […]
[…] Values were calculated using Prism.

The target in test [1] is S. mansoni p97 (Smp_018240) (Schistosoma mansoni, UniProt G4M0P7). Briefly: biochemical. Conditions: for IC50: Sm p97, 100 μM – 1 nM, read-out: S. mansoni IC50; for IC50 / Fold Selectivity: Suppl. Fig. 9C; for activity on the enzyme: schistosome p97; for Fold Selectivity: H. sapiens vs S. mansoni p97 IC50. Here is the method: E. coli BL21 (DE3) containing the desired plasmid were grown in LB medium containing […] kanamycin while shaking at 37 °C to an OD600 of 0.6–0.8. The temperature was reduced to 18°C and 0.8 mM isopropyl-beta-D-thiogalactopyranoside (IPTG) was added. The bacterial culture was harvested 16hr later by centrifugation. The resulting pellet was suspended in 60 mL lysis buffer/2L bacterial culture [20 mM Tris (pH 7.4), 300 mM NaCl, 5 mM MgCl2, 20 mM imidazole, 1% Triton X-100, 1 mg/mL lysozyme, 10% glycerol, 3 mM β-mercaptoethanol, 0.2 mM PMSF, and protease inhibitor tablet (Roche)]. […] The lysate was centrifuged at 40,000 × rpm for 35 min at 4°C. The resulting supernatant was incubated with Ni-NTA beads equilibrated to lysis buffer for 1 hr at 4°C before being loaded onto a gravity column. The bead bed was washed with wash buffer [20 mM Tris (pH 7.4), 500 mM NaCl, 5 mM MgCl2, 40 mM imidazole, 0.05% Triton X-100, 10% glycerol, 3 mM β-mercaptoethanol, 0.2 mM PMSF, 0.001 mg/mL Aprotinin, and 0.002 mg/mL Leupeptin], then eluted in the same buffer with 250 mM imidazole in wash buffer. Fractions containing p97 were concentrated using Pierce Protein Concentrators (100k MWCO) and loaded onto a gel-filtration column (Superdex 200PG) and eluted using SEC buffer [20 mM Tris (pH 7.4), 180 mM NaCl, 5 mM MgCl2, and 10% glycerol] at 0.5 mL/min flow rate on a BioRad NGC Chromatography System. Fractions corresponding to an apparent molecular weight of 500 – 600 kDa were collected and analyzed by 4–20% SDS/PAGE to evaluate purity. Concentration was determined using a BSA standard. Fractions containing purified protein were aliquoted, snap frozen in liquid nitrogen, and stored at −80 °C until use.
Sequence of S. mansoni p97 (Smp_018240) (G4M0P7 entry or part of it): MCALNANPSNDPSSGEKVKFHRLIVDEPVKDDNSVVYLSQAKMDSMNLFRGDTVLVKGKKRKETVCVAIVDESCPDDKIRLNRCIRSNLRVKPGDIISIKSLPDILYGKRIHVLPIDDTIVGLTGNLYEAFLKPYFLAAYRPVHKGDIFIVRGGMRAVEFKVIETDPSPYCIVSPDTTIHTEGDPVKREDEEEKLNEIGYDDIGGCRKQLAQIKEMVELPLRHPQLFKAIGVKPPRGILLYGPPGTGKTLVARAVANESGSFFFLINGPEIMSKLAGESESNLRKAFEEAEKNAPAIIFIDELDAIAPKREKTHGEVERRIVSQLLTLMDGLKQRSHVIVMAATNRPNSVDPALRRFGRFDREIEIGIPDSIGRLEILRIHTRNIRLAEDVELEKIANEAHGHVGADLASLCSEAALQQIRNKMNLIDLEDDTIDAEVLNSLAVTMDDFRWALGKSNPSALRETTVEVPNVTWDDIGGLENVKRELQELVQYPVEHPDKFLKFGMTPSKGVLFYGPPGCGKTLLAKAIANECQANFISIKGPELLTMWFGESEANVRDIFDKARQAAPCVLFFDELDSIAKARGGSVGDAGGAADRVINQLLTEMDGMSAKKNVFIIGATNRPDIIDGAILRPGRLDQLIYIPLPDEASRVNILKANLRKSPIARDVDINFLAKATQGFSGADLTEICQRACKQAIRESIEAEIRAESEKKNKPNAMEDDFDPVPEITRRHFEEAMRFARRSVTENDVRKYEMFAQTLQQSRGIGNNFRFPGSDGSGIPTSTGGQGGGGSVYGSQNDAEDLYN
For manual ATP consumption assays, 1 μM p97 was incubated with 1% DMSO or inhibitor (1% DMSO final) in assay buffer [50 mM Tris (pH 7.5), 20 mM MgCl2, 1 mM EDTA, 0.5 mM tris(2-carboxyethyl)phosphine (TCEP)] for 5 minutes prior to the addition of 20 μM ATP in a 384-well plate for a total reaction volume of 10 μL, and a final concentration of 500nM enzyme and 10 μM ATP. The reaction was allowed to proceed for 50 minutes at room temperature before adding equivalent volume of Kinase-Glo Plus reagent (Promega), and a further incubation of 10 minutes in the dark.
IC50 values were calculated using GraphPad Prism.

In a further test the target is T1, H. sapiens p97 (P55072) (Homo sapiens, UniProt P55072).
T1 construct: 6xHis (C); made in house; host or cells: E. coli BL21 (DE3)
T1 sequence (P55072 whole entry): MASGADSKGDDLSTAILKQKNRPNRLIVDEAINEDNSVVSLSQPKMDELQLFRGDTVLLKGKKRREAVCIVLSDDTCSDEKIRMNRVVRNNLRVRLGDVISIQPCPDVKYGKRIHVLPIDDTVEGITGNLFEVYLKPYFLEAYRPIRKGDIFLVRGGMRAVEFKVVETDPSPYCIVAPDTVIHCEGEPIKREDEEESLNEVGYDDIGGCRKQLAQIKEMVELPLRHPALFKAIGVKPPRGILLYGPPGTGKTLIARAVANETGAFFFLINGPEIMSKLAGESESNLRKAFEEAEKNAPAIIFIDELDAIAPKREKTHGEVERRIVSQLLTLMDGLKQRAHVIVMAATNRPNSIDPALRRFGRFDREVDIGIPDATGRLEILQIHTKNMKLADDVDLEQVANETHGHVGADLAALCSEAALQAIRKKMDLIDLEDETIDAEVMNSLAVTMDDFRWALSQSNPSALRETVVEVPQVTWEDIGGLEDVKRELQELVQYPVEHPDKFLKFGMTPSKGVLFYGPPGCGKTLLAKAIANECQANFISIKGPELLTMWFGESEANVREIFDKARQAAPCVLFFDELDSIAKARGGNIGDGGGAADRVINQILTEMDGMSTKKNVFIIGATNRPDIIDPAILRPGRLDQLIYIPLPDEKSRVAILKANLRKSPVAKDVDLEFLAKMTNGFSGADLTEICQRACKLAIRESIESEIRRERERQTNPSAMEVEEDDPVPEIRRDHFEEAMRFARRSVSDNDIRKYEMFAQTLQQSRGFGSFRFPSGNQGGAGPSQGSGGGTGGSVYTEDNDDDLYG
The experiment in a line: p97 ATPase activity, ATP consumption assay (Kinase-Glo), IC50 / counter screen. Particulars: Hs p97; 100 μM – 1 nM; Suppl. Fig. 9C. The test is classed as biochemical. (In general: Kinase-Glo reads ATP consumption through a luciferase reaction.)

[2] abbreviates: adult parasites, fraction of worms attached, 72 hours of drug treatment, in culture until D5, 50 μM - 10 nM, Suppl. Fig. 9C, read-out: S. mansoni EC50.
Setting [3] is: adult worms, MEK1 inhibitor, read-out: EC50.

Like-named read-outs stand apart in the source and are kept apart here. Bounds are passed on as bounds.

By EC50 is commonly meant the concentration at which the effect is half-maximal. The IC50 is the midpoint of a concentration-inhibition curve. For `O=C(C#CC1CC1)Nc1ccc2oc(-c3ccccn3)nc2c1` [Compound 732, 3-cyclopropyl-N-(2-(pyridin-2-yl)benzo[d]oxazol-5-yl)propiolamide], the EC50 in the test on adult S. mansoni worms (setting [2]) is 1.3 µM. Moreover, the “effect on adult worms” value in the test with adult S. mansoni worms (10 μM) was “still active on worms”. Also, in test [1], the IC50 is greater than 100 µM and the “activity on the enzyme” value was “abolishing activity on the enzyme”.
Take `COc1ccc(C#CC(=O)Nc2ccc3oc(-c4ccccn4)nc3c2)cc1` [Compound 734, 3-(4-methoxyphenyl)-N-(2-(pyridin-2-yl)benzo[d]oxazol-5-yl)propiolamide]: the half-maximal effective concentration (EC50) in the test with adult S. mansoni worms (setting [2]) is 7 µM. Moreover, the “effect on adult worms” value in the test on adult S. mansoni worms (10 μM) is “decreased activity on the worms”. Also, in test [1], the “Fold Selectivity” value came out at 1.7, the IC50 was determined as 48 ± 2.6 µM and the “activity on the enzyme” value was “decreased potency on the enzyme”. For the same compound, at H. sapiens p97 (P55072), the IC50 came to 83 ± 6.5 µM.
Take `O=C(C#Cc1cccc(Cl)c1)Nc1ccc2oc(-c3ccccn3)nc2c1` [Compound 735, 3-(3-chlorophenyl)-N-(2-(pyridin-2-yl)benzo[d]oxazol-5-yl)propiolamide]: the EC50 with adult S. mansoni worms (setting [2]) amounted to 4.2 µM. Also, in the test with adult S. mansoni worms (10 μM), the “effect on adult worms” value is given as “still active on worms”. Also, in test [1], the “Fold Selectivity” value is listed as 0.70, the IC50 came to 11 ± 0.47 µM and the “activity on the enzyme” value is given as “abolishing activity on the enzyme”. This compound also returned an IC50 at H. sapiens p97 (P55072) of 7.3 ± 0.66 µM.
As to `O=C(C#Cc1ccc(Cl)cc1)Nc1ccc2oc(-c3ccccn3)nc2c1` [Compound 736, 3-(4-chlorophenyl)-N-(2-(pyridin-2-yl)benzo[d]oxazol-5-yl)propiolamide], the EC50 in the test with adult S. mansoni worms (setting [2]) was 12 µM. Also, the “effect on adult worms” value with adult S. mansoni worms (10 μM) is given as “decreased activity on the worms”. Also, in test [1], the “Fold Selectivity” value stood at 1.1, the IC50 turned out to be 5.9 ± 1.3 µM and the “activity on the enzyme” value is reported as “decreased potency on the enzyme”. The compound further returned an IC50 at H. sapiens p97 (P55072) of 6.7 ± 0.055 µM.
As to `O=C(C#Cc1ccccn1)Nc1ccc2oc(-c3ccccn3)nc2c1` [Compound 737, 3-(pyridin-2-yl)-N-(2-(pyridin-2-yl)benzo[d]oxazol-5-yl)propiolamide], in the test on adult S. mansoni worms (setting [2]), the EC50 came out at 22 µM. For the same compound, the “effect on adult worms” value in the test with adult S. mansoni worms (10 μM) is recorded as “decreased activity on the worms”. Besides, in test [1], the “Fold Selectivity” value is 4.3, the IC50 came to 3 ± 0.41 µM and the “activity on the enzyme” value was “decreased potency on the enzyme”. Further, the IC50 at H. sapiens p97 (P55072) was 13 ± 2.2 µM.
On to `O=C(C#Cc1cccnc1)Nc1ccc2oc(-c3ccccn3)nc2c1` [Compound 738, N-(2-(pyridin-2-yl)benzo[d]oxazol-5-yl)-3-(pyridin-3-yl)propiolamide], for which, in the test on adult S. mansoni worms (10 μM), the “time to detachment of adult worms in culture” value is no more than 24 h and the “effect on adult worms” value was “death of the parasites”. In the test with adult S. mansoni worms (setting [2]), the EC50 turned out to be 3.5 µM. Besides, in test [1], the “Fold Selectivity” value is listed as 1.9 and the IC50 is 0.42 ± 0.057 µM. On H. sapiens p97 (P55072), this compound showed an IC50 of 0.78 ± 0.14 µM.
In turn, `Nc1nc(=O)n(-c2ccccc2Cl)c2nc(C(F)(F)F)ccc12` [IDE397, reference compound] had an EC50 with adult S. mansoni worms greater than 50 µM.
On to `O=C(NOC[C@H](O)CO)c1ccc(F)c(F)c1Nc1ccc(I)cc1F` [Mirdametinib, reference compound], for which the EC50 with adult S. mansoni worms (setting [3]) was greater than 50 µM.
On to `CN(C)CCc1nnc2cc(-c3ccccc3)c3cc(Cl)ccc3n12` [PF-9366, reference compound], for which a half-maximal response in the test on adult S. mansoni worms (EC50) required 43 µM.
`CC(=O)Nc1cccc(-n2c(=O)n(C3CC3)c(=O)c3c(Nc4ccc(I)cc4F)n(C)c(=O)c(C)c32)c1` [Trametinib, reference compound]: the concentration for a half-maximal effect (EC50) in the test on adult S. mansoni worms (setting [3]) was found to be 0.65 µM.
Consider `O=C(N[C@@H](C1CC1)C(F)(F)F)c1cc(-c2cnn3cc(-c4ccc(F)cc4)cnc23)cs1` [ULK-101, reference compound], for which, in the test on adult S. mansoni worms (initial concentration of 10 μM), the “time in which inhibitor killed parasites” value is listed as no more than 24 h.
